Experimental data taken from PubChem BioAssay AID1745844 (Carcinogenic Potency Database (CPDB), 2022).

Test system: rodent lifetime carcinogenesis bioassay, tumor incidence TD50
Test: chronic cancer bioassays in animals – CPDB, compiled studies (AID 1745844)
Settings: inhaled

Compound C=CC=C has a TD50 (mouse, strain B6C3F1, males, site: liver, lesion: hepatocellular adenoma + hepatocellular carcinoma + neoplastic nodule, dosed 60 weeks, study length 60 weeks) of 541 mg/kg/day, a TD50 (mouse, strain B6C3F1, males, site: liver, lesion: hepatocellular adenoma + hepatocellular carcinoma + neoplastic nodule, dosed 82 weeks, study length 104 weeks) of 23.9 mg/kg/day and a TD50 (mouse, strain B6C3F1, males, site: liver, lesion: hepatocellular adenoma + hepatocellular carcinoma, dosed 13 weeks, study length 104 weeks) of 15.1 mg/kg/day. The TD50 (mouse, strain B6C3F1, males, site: liver, lesion: hepatocellular adenoma + hepatocellular carcinoma, dosed 26 weeks, study length 104 weeks) was 23.8 mg/kg/day, the TD50 (mouse, strain B6C3F1, males, site: liver, lesion: hepatocellular adenoma + hepatocellular carcinoma, dosed 40 weeks, study length 104 weeks) was 16.8 mg/kg/day and the TD50 (mouse, strain B6C3F1, males, site: liver, lesion: hepatocellular adenoma + hepatocellular carcinoma, dosed 52 weeks, study length 104 weeks) was 14.6 mg/kg/day. It also gave a TD50 (mouse, strain B6C3F1, males, site: liver, lesion: hepatocellular adenoma + hepatocellular carcinoma, dosed 82 weeks, study length 104 weeks) of 23.9 mg/kg/day, a TD50 (mouse, strain B6C3F1, males, site: liver, lesion: hepatocellular adenoma, dosed 13 weeks, study length 104 weeks) of 17.9 mg/kg/day and a TD50 (mouse, strain B6C3F1, males, site: liver, lesion: hepatocellular adenoma, dosed 26 weeks, study length 104 weeks) of 27.8 mg/kg/day. For the same compound, the TD50 (mouse, strain B6C3F1, males, site: liver, lesion: hepatocellular adenoma, dosed 40 weeks, study length 104 weeks) was 18 mg/kg/day, the TD50 (mouse, strain B6C3F1, males, site: liver, lesion: hepatocellular adenoma, dosed 52 weeks, study length 104 weeks) was 15.8 mg/kg/day and the TD50 (mouse, strain B6C3F1, males, site: liver, lesion: hepatocellular adenoma, dosed 82 weeks, study length 104 weeks) was 34.1 mg/kg/day. For the same compound, the TD50 (mouse, strain B6C3F1, males, site: liver, lesion: hepatocellular carcinoma, dosed 13 weeks, study length 104 weeks) was 23.4 mg/kg/day, the TD50 (mouse, strain B6C3F1, males, site: liver, lesion: hepatocellular carcinoma, dosed 26 weeks, study length 104 weeks) was 60 mg/kg/day and the TD50 (mouse, strain B6C3F1, males, site: liver, lesion: hepatocellular carcinoma, dosed 40 weeks, study length 104 weeks) was 62 mg/kg/day. The TD50 (mouse, strain B6C3F1, males, site: liver, lesion: hepatocellular carcinoma, dosed 52 weeks, study length 104 weeks) was 47 mg/kg/day, the TD50 (mouse, strain B6C3F1, males, site: liver, lesion: hepatocellular carcinoma, dosed 82 weeks, study length 104 weeks) was 34.4 mg/kg/day and the TD50 (mouse, strain B6C3F1, males, site: lung, lesion: alveolar/bronchiolar adenoma + alveolar/bronchiolar carcinoma + adenocarcinoma, dosed 13 weeks, study length 104 weeks) was 8.59 mg/kg/day. For the same compound, the TD50 (mouse, strain B6C3F1, males, site: lung, lesion: alveolar/bronchiolar adenoma + alveolar/bronchiolar carcinoma + adenocarcinoma, dosed 52 weeks, study length 104 weeks) was 7.17 mg/kg/day, the TD50 (mouse, strain B6C3F1, males, site: lung, lesion: alveolar/bronchiolar adenoma + alveolar/bronchiolar carcinoma + adenocarcinoma, dosed 82 weeks, study length 104 weeks) was 19.2 mg/kg/day and the TD50 (mouse, strain B6C3F1, males, site: lung, lesion: alveolar/bronchiolar adenoma + alveolar/bronchiolar carcinoma, dosed 13 weeks, study length 104 weeks) was 8.59 mg/kg/day. It also gave a TD50 (mouse, strain B6C3F1, males, site: lung, lesion: alveolar/bronchiolar adenoma + alveolar/bronchiolar carcinoma, dosed 26 weeks, study length 104 weeks) of 13.4 mg/kg/day, a TD50 (mouse, strain B6C3F1, males, site: lung, lesion: alveolar/bronchiolar adenoma + alveolar/bronchiolar carcinoma, dosed 40 weeks, study length 104 weeks) of 11 mg/kg/day and a TD50 (mouse, strain B6C3F1, males, site: lung, lesion: alveolar/bronchiolar adenoma + alveolar/bronchiolar carcinoma, dosed 52 weeks, study length 104 weeks) of 7.25 mg/kg/day. It also gave a TD50 (mouse, strain B6C3F1, males, site: lung, lesion: alveolar/bronchiolar adenoma + alveolar/bronchiolar carcinoma, dosed 60 weeks, study length 60 weeks) of 65.9 mg/kg/day, a TD50 (mouse, strain B6C3F1, males, site: lung, lesion: alveolar/bronchiolar adenoma + alveolar/bronchiolar carcinoma, dosed 82 weeks, study length 104 weeks) of 19.6 mg/kg/day and a TD50 (mouse, strain B6C3F1, males, site: lung, lesion: alveolar/bronchiolar adenoma, dosed 13 weeks, study length 104 weeks) of 17.1 mg/kg/day. For the same compound, the TD50 (mouse, strain B6C3F1, males, site: lung, lesion: alveolar/bronchiolar adenoma, dosed 26 weeks, study length 104 weeks) was 17.3 mg/kg/day, the TD50 (mouse, strain B6C3F1, males, site: lung, lesion: alveolar/bronchiolar adenoma, dosed 40 weeks, study length 104 weeks) was 18.1 mg/kg/day and the TD50 (mouse, strain B6C3F1, males, site: lung, lesion: alveolar/bronchiolar adenoma, dosed 52 weeks, study length 104 weeks) was 9.13 mg/kg/day. The TD50 (mouse, strain B6C3F1, males, site: lung, lesion: alveolar/bronchiolar adenoma, dosed 60 weeks, study length 60 weeks) was 96.9 mg/kg/day, the TD50 (mouse, strain B6C3F1, males, site: lung, lesion: alveolar/bronchiolar adenoma, dosed 82 weeks, study length 104 weeks) was 33.2 mg/kg/day and the TD50 (mouse, strain B6C3F1, males, site: lung, lesion: alveolar/bronchiolar carcinoma + adenocarcinoma, dosed 13 weeks, study length 104 weeks) was 14.1 mg/kg/day. The TD50 (mouse, strain B6C3F1, males, site: lung, lesion: alveolar/bronchiolar carcinoma + adenocarcinoma, dosed 52 weeks, study length 104 weeks) was 13 mg/kg/day, the TD50 (mouse, strain B6C3F1, males, site: lung, lesion: alveolar/bronchiolar carcinoma + adenocarcinoma, dosed 82 weeks, study length 104 weeks) was 32.4 mg/kg/day and the TD50 (mouse, strain B6C3F1, males, site: lung, lesion: alveolar/bronchiolar carcinoma, dosed 26 weeks, study length 104 weeks) was 17.8 mg/kg/day. The TD50 (mouse, strain B6C3F1, males, site: lung, lesion: alveolar/bronchiolar carcinoma, dosed 40 weeks, study length 104 weeks) was 16.3 mg/kg/day, the TD50 (mouse, strain B6C3F1, males, site: lung, lesion: alveolar/bronchiolar carcinoma, dosed 60 weeks, study length 60 weeks) was 312 mg/kg/day and the TD50 (mouse, strain B6C3F1, males, site: preputial gland, lesion: adenoma + carcinoma + carcinoma, bilateral, dosed 13 weeks, study length 104 weeks) was 119 mg/kg/day. For the same compound, the TD50 (mouse, strain B6C3F1, males, site: preputial gland, lesion: adenoma + carcinoma + carcinoma, bilateral, dosed 26 weeks, study length 104 weeks) was 27.1 mg/kg/day, the TD50 (mouse, strain B6C3F1, males, site: preputial gland, lesion: adenoma + carcinoma + carcinoma, bilateral, dosed 40 weeks, study length 104 weeks) was 351 mg/kg/day and the TD50 (mouse, strain B6C3F1, males, site: preputial gland, lesion: carcinoma + carcinoma, bilateral, dosed 13 weeks, study length 104 weeks) was 167 mg/kg/day. For the same compound, the TD50 (mouse, strain B6C3F1, males, site: preputial gland, lesion: carcinoma + carcinoma, bilateral, dosed 26 weeks, study length 104 weeks) was 27.1 mg/kg/day, the TD50 (mouse, strain B6C3F1, males, site: preputial gland, lesion: carcinoma + carcinoma, bilateral, dosed 40 weeks, study length 104 weeks) was 351 mg/kg/day and the TD50 (mouse, strain B6C3F1, males, site: preputial gland, lesion: carcinoma + carcinoma, bilateral, dosed 52 weeks, study length 104 weeks) was 20.1 mg/kg/day. It also gave a TD50 (mouse, strain B6C3F1, males, site: preputial gland, lesion: carcinoma, NOS + squamous-cell carcinoma, dosed 60 weeks, study length 60 weeks) of 403 mg/kg/day, a TD50 (mouse, strain B6C3F1, males, site: preputial gland, lesion: carcinoma, dosed 82 weeks, study length 104 weeks) of 384 mg/kg/day and a TD50 (mouse, strain B6C3F1, males, site: preputial gland, lesion: squamous-cell carcinoma, dosed 60 weeks, study length 60 weeks) of 538 mg/kg/day. It also gave a TD50 (mouse, strain B6C3F1, males, site: subcutaneous tissue, lesion: hemangiosarcoma, dosed 82 weeks, study length 104 weeks) of 666 mg/kg/day, a TD50 (rat, strain Charles River CD (Sprague-Dawley), females, site: mammary gland, lesion: benign tumor, dosed 105 weeks, study length 105 weeks) of 182 mg/kg/day and a TD50 (rat, strain Charles River CD (Sprague-Dawley), females, site: mammary gland, lesion: malignant tumor, dosed 105 weeks, study length 105 weeks) of 7720 mg/kg/day. For the same compound, the TD50 (rat, strain Charles River CD (Sprague-Dawley), females, site: mammary gland, lesion: several types, types named in the paper, dosed 105 weeks, study length 105 weeks) was 133 mg/kg/day, the TD50 (rat, strain Charles River CD (Sprague-Dawley), females, site: thyroid gland, lesion: follicular-cell adenoma, dosed 105 weeks, study length 105 weeks) was 8270 mg/kg/day and the TD50 (rat, strain Charles River CD (Sprague-Dawley), males, site: any site (literature study), lesion: one or several types, types not named, dosed 111 weeks, study length 111 weeks) was 1470 mg/kg/day. The TD50 (rat, strain Charles River CD (Sprague-Dawley), males, site: pancreas, lesion: exocrine adenoma, dosed 111 weeks, study length 111 weeks) was 9310 mg/kg/day and the TD50 (rat, strain Charles River CD (Sprague-Dawley), males, site: testis, lesion: Leydig-cell tumor, dosed 111 weeks, study length 111 weeks) was 7550 mg/kg/day.
